In article PMC12275099, “VX-445 (elexacaftor) inhibits chloride secretion across human bronchial epithelial cells by directly blocking KCa3.1 channels” (PNAS Nexus, 2025):
Several values for one entry are separate records, joined by “and”; a condition that tells them apart may be missing. Equal values may be shown once.

Assays:
KCa3.1 = molecular target: T1, KCa3.1 (Homo sapiens, UniProt O15554); assay: Excised inside-out patch-clamp on HEK-KCa3.1; assay type: biochemical; conditions: for relative remaining current: Fig 3I single experiments
T1 construct: expressed in transfected cells
Description: Our Isc results are consistent with VX-445 inhibiting KCa3.1 in HBEs. To directly assess this possibility, we initially carried out whole-cell patch-clamp studies on undifferentiated HBEs. […] Upon application of 10 µM VX-445, a majority of this current was inhibited, averaging 87 ± 4% (n = 3, P < 0.005; Fig. 3B). A summary of the current–voltage (I–V) relationship—normalized to cell capacitance—is shown in Fig. 3C, which also includes the whole-cell I–V in the presence of Tram-34. […] To ensure isolation of KCa3.1 currents and to more fully characterize this VX-445-dependent inhibition of KCa3.1, we utilized HEK cells heterologously expressing KCa3.1 (HEK-KCa3.1). Initially, we confirmed our results from HBEs, using whole-cell recordings, as above. […] In seven experiments, this inhibition averaged 58 ± 7% (P < 0.005). […] It is well recognized that drugs are carried to their targets in the blood bound to albumin, which ranges from 3.4 to 5.4%. Thus, we determined whether VX-445 (10 µM) would inhibit KCa3.1 expressed in HEK cells in the presence of 3.4% albumin. In four experiments, VX-445 inhibited an average of 51 ± 17% of the whole-cell KCa3.1 current, which is not different from that observed in the absence of albumin. To confirm the direct effect of VX-445 on KCa3.1, we utilized the excised, inside-out patch-clamp technique. The patch was then exposed to DCEBIO (100 µM) to further activate the channels ([34–37])—analogous to our Isc studies in HBEs. […] In three experiments, VX-445 inhibited an average of 63 ± 6% of the KCa3.1 current. Based on these experiments, we determined the apparent inhibitory constant, Ki for VX-445. For these experiments, patches were excised into saturating Ca^2+ (3 µM) to ensure maximal KCa3.1 activation. These studies were carried out in the absence of DCEBIO to eliminate the possibility that the inhibition observed was due to competition for the DCEBIO-binding site.
HEK cells stably expressing KCa3.1 (IK1, SK4), KCa2.3 (SK3), and KCa2.2 (SK2) were generated and cultured as previously described by us ([37], [66–71]).
HEK cells expressing the channel of interest were plated onto poly-L-lysine-coated glass coverslips 1–2 days prior to patch-clamp analysis. Electrophysiological recordings in the excised, inside-out, and whole-cell patch-clamp configurations were performed as recently described ([14]). For excised patch-clamp recordings, the pipette solution contained (in mM): 140 K-gluconate, 5 KCl, 1 CaCl2, 1 MgCl2, and 10 HEPES. The pH was adjusted to 7.2 with KOH. The bath solution contained (in mM): 145 K-gluconate, 5 KCl, 1.3 MgCl2, 10 HEPES, and 1 EGTA. Sufficient CaCl2 was added to obtain the desired free Ca^2+ concentration at a pH of 7.2 (adjusted with KOH). When recording KCa3.1 channels, ATP (300 µM) was added to the bath to diminish channel rundown ([73]). All recordings were carried out at a voltage of −100 mV, referenced to the extracellular compartment, as is standard. The apparent Ki and Hill coefficient for each CFTR corrector on KCa3.1, KCa2.3, and KCa2.2 were determined during a continuous recording by step-wise addition of increasing concentrations of compound and fitting the resultant relative remaining current to a Hill equation (Prism v. 10.1.0). The zero current level was determined by the addition of a 0 Ca^2+ solution (zero-added Ca^2+ plus 1 mM EGTA) at the end of the experiment. In the case of KCa3.1, TRAM-34, a known inhibitor of KCa3.1 ([45]), was used to confirm expression of the channel. For whole-cell experiments, pipettes contained (in mM): 145 K-gluconate, 10 EGTA, 7.5 CaCl2, 2 MgCl2, 3 mM NaATP, and 10 HEPES. The bath solution contained (in mM): 140 K-gluconate, 5 KCl, 1.0 MgCl2, 10 HEPES, and 2 CaCl2. Current–voltage relationships were determined by stepping from a holding potential of −80 mV to +80 mV in 20 mV increments for 400 ms. […]

[1] = test system: BKCa (KCa1.1, KCNMA1) channels; design: method as in PMID 38954478; conditions: primary HBEs and HEK cells heterologously expressing the channel; cited from earlier work

## Cc1nn(C)cc1S(=O)(=O)NC(=O)c1ccc(-n2ccc(OCC(C)(C)C(F)(F)F)n2)nc1N1C[C@@H](C)CC1(C)C [VX-445, elexacaftor]
KCa3.1; 3 µM free Ca2+, absence of DCEBIO
  Hill coefficient: 1.2
KCa3.1; 3 µM free Ca2+, absence of DCEBIO, Hill fit, n = 4, read-out: apparent Ki
  Ki: 8 ± 2 µM
KCa3.1; 10 µM compound after DCEBIO 100 µM, 1 µM free Ca2+, three experiments, read-out: inhibition of KCa3.1 current in excised patch
  inhibition at 10 µM: 63 ± 6%
KCa3.1; KCa3.1 versus KCa2.2 and KCa2.3
  selectivity among KCNN gene family members: exhibits selectivity for KCa3.1 over KCa2.x channels
KCa3.1; [VX-445] 0.1
  relative remaining current: 100
KCa3.1; [VX-445] 1
  relative remaining current: 86 and 95 and 100 and 83
KCa3.1; [VX-445] 3
  relative remaining current: 68 and 80 and 93 and 62
[1]
  effect on BKCa: act as direct potentiators
